Measured values as given in US20070286886A1, “Materials And Methods For Inducing Apoptosis In Adipocytes” (University of Tennessee Research Foundation, priority 2004, published 2007).
“Also recorded” adds a separate entry of the source.

Assays:
[1] = system: 3T3-L1 and UCP2-transfected 3T3-L1 adipocytes; assay: Mitochondrial calcium (rhod-2 AM fluorescence) in adipocytes; format: cell-based
Method: (§1) Rhod-2/AM was used for qualitative measurement of [Ca^2+]m. Cells were incubated with the Ca^2+-sensitive fluorescent indicator rhod-2 AM (1-1.5 μM) for at least 1 h at 37° C. in 5% CO2 in humidified air. Because rhod-2 AM consists of a cationic rhodamine molecule, it accumulates preferentially inside the mitochondria due to their negative membrane potential. After loading, the cells were kept in rhod-2 AM-free standard solution for at least 1 h to allow conversion of the dye to its Ca^2+-sensitive, free acid form. Images of [Ca^2+]m were acquired at the wavelength of 552 nm excitation and 590 nm emission using the intracellular imaging system described above. Because rhod-2 is not a ratiometric dye, its fluorescence intensity was not calibrated to obtain absolute values of [Ca^2+]m. Instead, only relative values were recorded as fluorescence signal (F) relative to the control value (F0). After baseline calcium concentration was measured, the 1α,25-(OH)2-D3 was immediately applied to the cells and the calcium concentration was measured again.
as §1, with “the Ca^2+ sensitive” for “the Ca^2+-sensitive”, “AM (1-1·5 μM),” for “AM (1-1.5 μM)”, “at 370 degrees Celsius” for “at 37° C.”, “air. Since” for “air. Because”, “above. Since” for “above. Because”, “(F0).” for “(F0). After baseline calcium concentration was measured, the 1α,25-(OH)2-D3 was immediately applied to the cells and the calcium concentration was measured again.”

[2] = system: caspase-1; assay: Caspase-1 mRNA expression by real-time PCR in 3T3-L1 and UCP2-transfected 3T3-L1 adipocytes; format: cell-based; details: 24 h, control and UCP2-transfected 3T3-L1 cells
Method: (§2) 3T3-L1 preadipocytes were incubated at a density of 8000 cells/cm2 (10 cm2 dish) and grown in Dulbecco's modified Eagle's medium (DMEM) containing 10% FBS and antibiotics (adipocyte medium) at 37° C. in 5% CO2 in air. Confluent preadipocytes were induced to differentiate with a standard differentiation medium consisting of DMEM-F10 (1:1, vol/vol) medium supplemented with 1% FBS, 1 μM dexamethasone, IBMX (0.5 mM), and antibiotics (1% penicillin-streptomycin). Preadipocytes were maintained in this differentiation medium for 3 days and subsequently cultured in adipocyte medium. Cultures were re-fed every 2-3 days to allow 90% cells to reach full differentiation before they were chemically treated. Chemicals were freshly diluted in adipocyte medium before treatment. Cells were washed with fresh adipocyte medium, re-fed with medium containing the different treatments, and incubated at 37° C. in 5% CO2 in air before analysis. Cell viability was measured via trypan blue exclusion.
(§3) UCP2 full-length cDNAs were amplified by […] using mRNAs isolated from mouse white adipose tissues. The PCR primers for this amplification are shown as follows: UCP2 forward, 5′-[…]-3′, reverse, 5′-[…]-3′. The PCR products were then subcloned into pcDNA4/His expression vectors. The linearized constructs were transfected into 3T3-L1 preadipocytes using lipofectamine plus standard protocol (Invitrogen, Carlsbad, Calif.). After 48 h of transfection, cells were split and cultured in selective medium containing 400 ug/ml zeocin for the selection of resistant colonies. […]
(§4) Adipocyte caspase-1, caspase-3, Bcl-2, and Bax mRNA were quantitatively measured using a Smart Cycler Real Time PCR System (Cepheid, Sunnyvale, Calif.) with a TaqMan 1000 Core Reagent Kit (Applied Biosystems, Branchburg, N.J.). […] Reactions of quantitative RT-PCR for standards and unknown samples were Cepheid, Sunnyvale, Calif.) and TaqMan Real Time PCR Core Kit. The mRNA quantitation for each sample was further normalized using the corresponding 18 s quantitation, with a forward primer, 5′-[…]-3′, and a reverse primer, 5′-[…]-3′.

[3] = system: Bcl-2/Bax; assay: Bcl-2/Bax expression ratio by real-time PCR in 3T3-L1 and UCP2-transfected 3T3-L1 adipocytes; format: cell-based; details: 24 h, P<0.01
Method: as §2, §3, §4

[4] = system: UCP2; assay: UCP2 expression in 3T3-L1 cells (western blot, UCP2/actin); format: cell-based, mouse; details: 3T3-L1 cells, BK8644
Method: Duplex siRNA corresponding to UCP2 gene was designed and chemically synthesized by Invitrogen. The following gene-specific sequences were used successfully: Si-UCP2 sense 5′-GCCUCUACGACUCUGUCAA-3′ and antisense […]. Transfection of siRNA was performed with Oligofectamine™ reagent (Invitrogen Life Technologies, CA) in 6-well plates. Briefly, Oligofectamine diluted in DMEM was applied to the duplex siRNA mixture, and the formulation was continued for 20 min to allow the Oligofectamine-oligonucleotide complex to form. Per well, 800 μl of plating medium and 10 ul of 20 μM duplex siRNA duplex siRNA formulated with 4 μl of Oligofectamine were applied in a final volume of 1 ml. Cells were then incubated at […] in a CO2 incubator for 4 hrs. […]
Adipocytes were harvested and sonicated in a homogenization buffer containing 50 mM Tris-HCl (PH 7.4), 250 mM sucrose, 1 mM EDTA, 1 mM dithiothreitol, 1% (v/v) Triton X, 10% protease cocktail (Sigma). […] Homogenate intrafranatant protein from equal numbers of cells (determined via protein quantitation using Bradford method as described previously) was boiled in Laemmli sample buffer and subject to 10% SDS-polyacrylamide gel electrophoresis (PAGE). […] Visualization was detected with chemiluminescence reagent, using the Western Blotting Luminal Reagent (Santa Cruz Biotechnology, CA).

Row | caspase-1 expression ([2]; high dose 100 nM, P<0.01) | caspase-1 expression ([2]; physiological low doses 0.1 nM, 1 nM, 5 nM, 10 nM, P<0.05) | SMILES | mitochondrial calcium [Ca2+]m ([1]; high dose (100 nM)) | increase of mitochondrial Ca2+ ([1]; high dose (100 nM), P<0.05) [%] | mitochondrial calcium [Ca2+]m ([1]; low doses (0.1 nM to 10 nM), control and UCP2-transfected cells) | suppression of mitochondrial Ca2+ levels ([1]; physiological doses (0.1-10 nM)) [%] | Bcl-2/Bax expression ratio ([3]; high dose 100 nM, control and UCP2-transfected 3T3-L1 cells) | Bcl-2/Bax expression ratio ([3]; lower levels (0.1-10 nM)) | mitochondrial calcium ([1]; 3T3-L1 cells, p<0.05) | effect on UCP2 expression [4]
1 | stimulated | inhibited | C=C1/C(=C\C=C2/CCC[C@]3(C)[C@@H]([C@H](C)CCCC(C)(C)O)CC[C@@H]23)C[C@@H](O)C[C@@H]1O [1α,25-(OH)2-D3, 1α,25-dihydroxyvitamin D3] | significantly stimulated | 25 | decreased; also recorded: significant decreases | ~50 | significant decrease | dose-dependent increase | – | –
2 | – | – | COC(=O)C1=C(C)NC(C)=C([N+](=O)[O-])C1c1ccccc1C(F)(F)F (stereo not shown) [Bay K 8644] | – | – | – | – | – | – | increased | no effect
